Experimental data from US9649314B2, “Pyrimido[4,5-b]quinoline-4,5(3H,10H)-diones” (NOVARTIS AG, priority 2012, dated 2017).
Where two headings read alike, the source gives them in different places.

System: CFTR-Y122X
Assay: CFTR-Y122X assay (dual reporter isogenic Hek293 cell lines, Renilla luminescence readthrough)
Assay type: cell-based
Conditions: Homo sapiens
Source text: Activity of compounds of the present invention was examined in recombinant, dual reporter isogenic Hek293 cell lines (“CFTR-Y122X assay”). The engineered reporter constructs contained the 18 bp sequence stretch corresponding to a common Y122X PTC mutation in CFTR class I mutant patients (see Sermet-Gaudelus, BMC Medicine, 2007, 5(5)). Instead of a tyrosine (Y) in position 122 of the CFTR protein a TGA stop codon interrupts the open reading frame (Y122X) of the corresponding mRNA. This TGA stop codon triplet (followed by the pyrimidine base cytosine) is permissive to aminoglycoside mediated translational readthrough which served as positive control for high throughput screening. A corresponding TAA stop codon variant and a wildtype non mutated construct was used for confirmation and counter screening. The CFTR sequence was sandwiched between an eGFP reporter, and a triple myc tag sequence fused to a full length Renilla reporter. All sequences, including an intron containing one positioned pre-eGFP (b-globin intron) were cloned in frame. The corresponding expression constructs were stably expressed in the isogenic HEK-R4 cell host (Invitrogen Incorp.) and selected by blasticidin resistance. The isogenic integration of the construct minimizes gene dose effects and improves assay reproducibility. Stably integrated single cell derived clones were selected and characterized for aminoglycoside mediated readthrough. […] Readthrough of Y122X accumulates an intracellular localized fusion protein approximately 65.5 kDa in size as controlled by western blot analysis and immunofluorescence using an anti-renilla antibody. The eGFP reporter pre-PTC mutation serves as visual control for genetic stability of the screening clones and minimizes protein degradation of small fusion protein amounts. In the assay, compound concentration was 10 μM. In miniaturized 1536 well format 2000 cells were dispensed in 4 μl/well and incubated for 24 h at 37° C., 5% CO2. 40 nl compounds were placed on the cells with control wells containing 1 ul Paramomycin and 14.4 mM final concentration. Compounds were incubated for 24 h. Renilla Glo substrate (2.5 ul) was added and plates were centrifuged and processed for luminescence measurement using various readers. Activity calculation was done using the equation: A1 (%)=100*(S−NC)/(AC−NC) where AC, NC and S correspond to active controls (injection of Stimulation buffer=100% stimulation), neutral controls (buffer injection which Iloprost EC10) and screening samples (S). NC corresponds to 0% activity whereas AC is 100% activity (14 mM paromomycin). False positive artefacts were removed in confirmation and validation screening using the same assay format followed by counterscreening using the respective wildtype construct (w/o PTC mutation) cell model. Compounds were tested up to 100 μM compound concentration.

[1] = HEK293, at the above dose ranges (up to 100 μM), read-out: suppression, % of paromomycin reference activity
[2] = HEK293, nonsense mutation suppression, 24 h incubation
[3] = HEK293, nonsense mutation suppression, 100% = 14 mM paromomycin, 24 h incubation, tested up to 100 μM, read-out: Amax [%]

Row | Structure (SMILES) | Emax [1] | AC50 [2] | Emax [3] | other results
1 | Cn1c2ccccc2c(=O)c2c(=O)n(C3CCCCC3)c(C3CCCCC3)nc21 [2,3-dicyclohexyl-10-methylpyrimido[4,5-b]quinoline-4,5(3H,10H)-dione] | < 5% |  |  | 
2 | Cn1c2ccccc2c(=O)c2c(=O)n(C3CCCCCC3)c(-c3ccc(C(C)(C)C)cc3)nc21 [2-(4-(tert-butyl)phenyl)-3-cycloheptyl-10-methylpyrimido[4,5-b]quinoline-4,5(3H,10H)-dione] | < 5% |  |  | 
3 | Cn1c2ccccc2c(=O)c2c(=O)n(C3CCCCC3)c(-c3ccc(C(C)(C)C)cc3)nc21 [2-(4-(tert-butyl)phenyl)-3-cyclohexyl-10-methylpyrimido[4,5-b]quinoline-4,5(3H,10H)-dione] | < 5% |  |  | 
4 | Cn1c2ccccc2c(=O)c2c(=O)n(C3CCCC3)c(-c3ccc(C(C)(C)C)cc3)nc21 [2-(4-(tert-butyl)phenyl)-3-cyclopentyl-10-methylpyrimido[4,5-b]quinoline-4,5(3H,10H)-dione] | < 5% |  |  | 
5 | Cn1c2ccccc2c(=O)c2c(=O)n(C3CCCCCC3)c(-c3ccc(Cl)cc3)nc21 [2-(4-chlorophenyl)-3-cycloheptyl-10-methylpyrimido[4,5-b]quinoline-4,5(3H,10H)-dione] | < 5% |  |  | 
6 | Cn1c2ccccc2c(=O)c2c(=O)n(C3CCCC3)c(-c3ccc(Cl)cc3)nc21 [2-(4-chlorophenyl)-3-cyclopentyl-10-methylpyrimido[4,5-b]quinoline-4,5(3H,10H)-dione] | < 5% |  |  | 
7 | Cc1cc(C)cc(-n2c(C3CCCCC3)nc3c(c(=O)c4ccccc4n3C)c2=O)c1 [2-cyclohexyl-3-(3,5-dimethylphenyl)-10-methylpyrimido[4,5-b]quinoline-4,5(3H,10H)-dione] | < 5% |  |  | 
8 | CC(C)c1nc2c(c(=O)c3ccccc3n2C)c(=O)n1C1CCOC1 (stereo not drawn) [2-isopropyl-10-methyl-3-(tetrahydrofuran-3-yl)pyrimido[4,5-b]quinoline-4,5(3H,10H)-dione] | < 5% |  |  | 
9 | CC(C)c1nc2c(c(=O)c3cc(C(F)(F)F)ccc3n2C)c(=O)n1-c1ccccc1 [2-isopropyl-10-methyl-3-phenyl-7-(trifluoromethyl)pyrimido[4,5-b]quinoline-4,5(3H,10H)-dione] | < 5% |  |  | 
10 | Cn1c2ccccc2c(=O)c2c(=O)n(-c3cccc(Cl)c3)c(C3CCCCC3)nc21 [3-(3-chlorophenyl)-2-cyclohexyl-10-methylpyrimido[4,5-b]quinoline-4,5(3H,10H)-dione] | < 5% |  |  | 
11 | Cn1c2ccccc2c(=O)c2c(=O)n(C3CCCCCC3)c(-c3ccc(Cl)cc3Cl)nc21 [3-cycloheptyl-2-(2,4-dichlorophenyl)-10-methylpyrimido[4,5-b]quinoline-4,5(3H,10H)-dione] | < 5% |  |  | 
12 | Cn1c2ccccc2c(=O)c2c(=O)n(C3CCCCCC3)c(-c3ccccc3F)nc21 [3-cycloheptyl-2-(2-fluorophenyl)-10-methylpyrimido[4,5-b]quinoline-4,5(3H,10H)-dione] | < 5% |  |  | 
13 | Cn1c2ccccc2c(=O)c2c(=O)n(C3CCCCCC3)c(-c3ccc(F)cc3)nc21 [3-cycloheptyl-2-(4-fluorophenyl)-10-methylpyrimido[4,5-b]quinoline-4,5(3H,10H)-dione] | < 5% |  |  | 
14 | Cn1c2ccccc2c(=O)c2c(=O)n(C3CCCCCC3)c(C3CCCCC3)nc21 [3-cycloheptyl-2-cyclohexyl-10-methylpyrimido[4,5-b]quinoline-4,5(3H,10H)-dione] | < 5% |  |  | 
15 | Cn1c2ccccc2c(=O)c2c(=O)n(C3CCCCCC3)c(-c3ccc([N+](=O)[O-])cc3)nc21 [3-cycloheptyl-10-methyl-2-(4-nitrophenyl)pyrimido[4,5-b]quinoline-4,5(3H,10H)-dione] | < 5% |  |  | 
16 | Cn1c2ccccc2c(=O)c2c(=O)n(C3CCCCC3)c(-c3ccc(Cl)cc3Cl)nc21 [3-cyclohexyl-2-(2,4-dichlorophenyl)-10-methylpyrimido[4,5-b]quinoline-4,5(3H,10H)-dione] | < 5% |  |  | 
17 | Cn1c2ccccc2c(=O)c2c(=O)n(C3CCCC3)c(C3CCCN(C4CCCC4)C3)nc21 (stereo not drawn) [3-cyclopentyl-2-(1-cyclopentylpiperidin-3-yl)-10-methylpyrimido[4,5-b]quinoline-4,5(3H,10H)-dione] | < 5% |  |  | 

Row | Structure (SMILES) | Emax [1] | AC50 [2] | Emax [3] | other results
18 | CC(C)Cn1c2ccccc2c(=O)c2c(=O)n(-c3ccccc3)c(C(C)C)nc21 [10-isobutyl-2-isopropyl-3-phenylpyrimido[4,5-b]quinoline-4,5(3H,10H)-dione] | < 5% |  |  | 
19 | Cn1c2ccccc2c(=O)c2c(=O)n(-c3ccccc3)c(C3CCC3)nc21 [Example 1.1, 2-cyclobutyl-10-methyl-3-phenylpyrimido[4,5-b]quinoline-4,5(3H,10H)-dione] |  | 1.3 µM |  | Emax (HEK293, 24 h, read-out: Amax [%]): 258%
20 | C=CCn1c2ccccc2c(=O)c2c(=O)n(-c3ccccc3)c(C(C)C)nc21 [Example 1.2, 10-allyl-2-isopropyl-3-phenylpyrimido[4,5-b]quinoline-4,5(3H,10H)-dione] |  |  | 63% | 
21 | CC(C)c1nc2[nH]c3ccccc3c(=O)c2c(=O)n1-c1ccccc1 [Example 1.3, 2-isopropyl-3-phenylpyrimido[4,5-b]quinoline-4,5(3H,10H)-dione] |  | 6.1 µM | 279% | 
22 | C=CCn1c2ccccc2c(=O)c2c(=O)n(-c3ccccc3)c(C3CCC3)nc21 [Example 1.4, 10-allyl-2-cyclobutyl-3-phenylpyrimido[4,5-b]quinoline-4,5(3H,10H)-dione] |  | 4 µM | 279% | 
23 | O=c1c2ccccc2[nH]c2nc(C3CCC3)n(-c3ccccc3)c(=O)c12 [Example 1.5, 2-cyclobutyl-3-phenylpyrimido[4,5-b]quinoline-4,5(3H,10H)-dione] |  | 1.1 µM | 170% | 
24 | CC1CC(c2nc3c(c(=O)c4ccccc4n3C)c(=O)n2-c2ccccc2)C1 (stereo not drawn) [Example 1.6, 10-methyl-2-(3-methylcyclobutyl)-3-phenylpyrimido[4,5-b]quinoline-4,5(3H,10H)-dione] |  | 6.1 µM | 165% | 
25 | Cn1c2ccccc2c(=O)c2c(=O)n(-c3ccccc3)c(C3CC(C)(C)C3)nc21 [Example 1.7, 2-(3,3-dimethylcyclobutyl)-10-methyl-3-phenylpyrimido[4,5-b]quinoline-4,5(3H,10H)-dione] |  | 3.8 µM | 7% | 
26 | COC1CC(c2nc3c(c(=O)c4ccccc4n3C)c(=O)n2-c2ccccc2)C1 (stereo not drawn) [Example 1.8, 2-(3-methoxycyclobutyl)-10-methyl-3-phenylpyrimido[4,5-b]quinoline-4,5(3H,10H)-dione] |  | 11.8 µM | 18% | 
27 | CCC(CC)c1nc2c(c(=O)c3ccccc3n2C)c(=O)n1-c1ccccc1 [Example 1.9, 10-methyl-2-(pentan-3-yl)-3-phenylpyrimido[4,5-b]quinoline-4,5(3H,10H)-dione] |  | 11.7 µM | 200% | 
28 | Cn1c2ccccc2c(=O)c2c(=O)n(-c3ccccc3)c(C3CCCC3)nc21 [Example 1.10, 2-cyclopentyl-10-methyl-3-phenylpyrimido[4,5-b]quinoline-4,5(3H,10H)-dione] |  | 11 µM | 277% | 
29 | Cn1c2ccccc2c(=O)c2c(=O)n(-c3ccccc3)c(C3CC3)nc21 [Example 1.11, 2-cyclopropyl-10-methyl-3-phenylpyrimido[4,5-b]quinoline-4,5(3H,10H)-dione] |  | 9.1 µM | 188% | 
30 | CCCCc1nc2c(c(=O)c3ccccc3n2C)c(=O)n1-c1ccccc1 [Example 1.12, 2-butyl-10-methyl-3-phenylpyrimido[4,5-b]quinoline-4,5(3H,10H)-dione] |  | 4.8 µM | 391% | 
31 | COCCCc1nc2c(c(=O)c3ccccc3n2C)c(=O)n1-c1ccccc1 [Example 1.13, 2-(3-methoxypropyl)-10-methyl-3-phenylpyrimido[4,5-b]quinoline-4,5(3H,10H)-dione] |  |  | 13% | 
32 | COCCCCc1nc2c(c(=O)c3ccccc3n2C)c(=O)n1-c1ccccc1 [Example 1.14, 2-(4-methoxybutyl)-10-methyl-3-phenylpyrimido[4,5-b]quinoline-4,5(3H,10H)-dione] |  |  | 18% | 
33 | CC(C)c1nc2c(c(=O)c3ccccc3n2C)c(=O)n1-c1ccccc1F [Example 1.15, 3-(2-fluorophenyl)-2-isopropyl-10-methylpyrimido[4,5-b]quinoline-4,5(3H,10H)-dione] |  | 7.8 µM | 169% | 
